“Also recorded” adds a separate entry of the source.
Tests used:
[1] = test system: primary motor neuron culture from rat spinal cord; test: Motor neuron survival after glutamate exposure (in vitro ALS model), MAP-2 immunostaining; type: cell-based; settings: for protective effect on motor neurons: 1 pM to 10 μM
Procedure: The aim of this study was to study the effect of CR777B on primary motor neuron culture from rat spinal cord (SC) injured by glutamate exposure (a well validated in vitro ALS model and model of motor neuron diseases).
Rat SC motor neurons were cultured as described by Martinou et al., Neuron. […] Briefly, pregnant female rats (Wistar, Janvier labs) of 14 days gestation were killed by cervical dislocation. […] The medium was changed every day.
For each condition, 6 wells were assessed, 30 pictures per well were taken using ImageXpress (Molecular Devices) with 20× magnification, to assess motor neuron survival (MAP-2). Analysis of picture was done using Custom Module Editor (Molecular Devices). Results were expressed in terms of mean survival neuron, labeled for MAP-2. Data were expressed in percentage of control conditions (no intoxication, no glutamate=100%) in order to express the glutamate injury. All values were expressed as mean+/−SEM (s.e.mean) of the culture (n=6 wells per condition per culture). Graphs and statistical analyses are made on the different conditions (ANOVA followed by PLSD Fisher's test when allowed, using Statview software version 5.0).

[2] = test system: primary rat cortical neurons; test: Neuron survival and neurite network after glutamate injury, MAP-2 immunostaining
[3] = test system: primary rat dopaminergic neurons (TH positive neurons); test: Neuroprotection after MPP+ exposure, TH immunostaining; type: cell-based; settings: for neuroprotective effect on TH positive neurons: 1 pmol/L to 10 μmol/L
Procedure: This study investigated the neuroprotective effect of the Compound CR777B of example 1 on rat primary mesencephalic cultures following exposure to 1-methyl-4-phenyl pyridinium (MPP^+).
Rat dopaminergic neurons were cultured as described by Visanji et al., 2008 FASEB J. 2008; 22(7):2488-97. Briefly, the midbrains obtained from 15-day old rat embryos (Janvier Labs, France) were dissected under a microscope. The embryonic midbrains were removed and placed in ice-cold medium of Leibovitz (L15, Batch 4290114, Pan Biotech, Germany) containing 2% of Penicillin-Streptomycin (PS, Batch 1451013, Pan Biotech) and 1% of bovine serum albumin (BSA, Batch K030913, Pan Biotech). The ventral portion of the mesencephalic flexure, a region of the developing brain rich in dopaminergic neurons, was used for the cell preparations.
The midbrains were dissociated by trypsinisation for 20 min at 37° C. […] The cells were seeded in supplemented neurobasal medium at a density of 40 000 cells/well in 96 well-plates pre-coated with poly-L-lysine (Batch 3102256, Corning Biocoat) and maintained in a humidified incubator at 37° C. in 5% CO2/95% air atmosphere. Half of the medium was changed every 2 days with fresh medium.
On day 6 of culture, the medium was removed and fresh medium was added, without or with MPP+ at 4 μM diluted in control medium and let for 48 h. In parallel, compound CR777B and withaferin A were solved in culture medium and then pre-incubated with mesencephalic neurons 1 hour before the MPP+ application (48 h).
48 hours after intoxication, the cell culture supernatant was taken off and the dopaminergic neurons were fixed by a solution of 4% paraformaldehyde in PBS, pH=7.3 for 20 min at room temperature.
After permeabilization with 0.1% of saponin (Merck, France), cells were incubated for 2 hours with monoclonal Anti-Tyrosine Hydroxylase (TH) antibody produced in mouse at dilution of 1/10000 in PBS containing 1% FCS, 0.1% saponin, for 2 h at room temperature.
The immunolabeled cultures were automatically examined with ImageXpress (Molecular Devices, United Kingdom) equipped with a LED at ×10 magnification. […] All images were taken with the same conditions. Analysis were automatically performed by using Custom Module Editor (Molecular Devices).
Data were expressed in percentage of control conditions (no injury, no compound=100%). All values were expressed as mean+/−SEM (standard error mean) of the 6 wells with statistical analyses on the different conditions (ANOVA followed by Dunnett's test when allowed, using GraphPad Prism software).

[4] = test system: human HCT-116 colorectal carcinoma; test: Cell growth inhibition by MTS assay (cytotoxicity); type: cell-based; settings: for IC50: Homo sapiens, HCT-116, MTS assay, 72 h of incubation, triplicate, read-out: IC50 mM HCT116
Procedure: (§1) Human MRC-5 cell line derived from normal lung tissue and human HCT-116 colorectal carcinoma were obtained from the American Type Culture Collection (ATCC, Rockville, Md.). Cell lines were cultured according to the supplier's instructions. Human HCT-116 cells were grown in Gibco McCoy's 5A supplemented with 10% fetal calf serum (FCS) and 1% glutamine. Human MRC-5 cells were grown in DMEM supplemented with 10% fetal calf serum (FCS) and 1% glutamine.
(§2) Cells were counted using a Vi-cell XR (Beckman Coulter) and their viability assessed by 0.25% trypan blue dye exclusion. They were tested for the presence of mycoplasma before experiments with the Mycoplasma PCR Detection Kit (Applied Biological Materials Inc., Canada) in accordance with the manufacturer instructions and only mycoplasma-free cells were used for further investigations.
(§3) Cell lines were maintained at 37° C. in a humidified atmosphere containing 5% CO2. Cell growth inhibition was determined by an MTS assay according to the manufacturer's instructions (Promega, Madison, Wis., USA). […] After 24 h of culture, the cells were treated with the compound CR777B of example 1 or with the withaferine at 8 different final concentrations. Each concentration was obtained from serial dilutions in culture medium starting from the stock solution. Control cells were treated with the vehicle. Experiments were performed in triplicate.
(§4) After 72 h of incubation, 20 μL of CellTiter 96® AQueous One Solution Reagent was added for 2 h before recording absorbance at 490 nm with a spectrophotometric plate reader. The dose-response curves were plotted with Graph Prism software and the IC50 values were calculated using the Graph Prism software from polynomial curves (four or five-parameter logistic equations).

[5] = test system: Human MRC-5 cell line derived from normal lung tissue; test: Cell growth inhibition by MTS assay (cytotoxicity); type: cell-based; settings: MRC5, 72 h of incubation, triplicate
Procedure: as §1, §2, §3, §4

[6] = test system: primary cocultures of central neurons and oligodendrocytes; test: In vitro myelination (MS) model, A2B5 and MAG immunostaining; type: cell-based, rat; settings: for conclusion: effect on OPC and OL: 1 pmol/L to 10 μmol/L
Procedure: A reproducible in vitro myelination model based on primary cocultures of central neurons and oligodendrocytes culturing in 96-well plate is used and adapted to high throughput screening.
Neurons/oligodendrocytes were cultured as previously described by Charles et al., 2000. PNAS 97 7585-7590.
Briefly, pregnant Wistar female rats of 17 days gestation were killed by cervical dislocation (Janvier Labs, France) and the foetuses removed from the uterus. The forebrains were removed and placed in ice-cold medium of Leibovitz (L15; Pan Biotech, Germany) containing 2% of Penicillin-Streptomycin (Batch 1451013, PanBiotech) and 1% of bovine serum albumin (BSA) (Batch K180713, Pan Biotech). Cortexes were dissociated by trypsinisation for 20 min at 37° C., with Trypsin EDTA 1× (Batch 7310713, PanBiotech). The reaction was stopped by the addition of Dulbecco's modified Eagle's medium (DMEM) (Batch 9710913, PanBiotech) containing DNAase I grade II at 0.1 mg/mL (Batch H131108, PanBiotech) and 10% of foetal calf serum (Batch 41Q7218K, Invitrogen, France). Cells were then mechanically dissociated by 3 passages through a 10 mL pipette. Cells were centrifuged at 180×g for 10 min at 4° C. temperature on a layer of BSA (3.5%) in L15 medium. The supernatant was discarded and cells of the pellet were re-suspended in DMEM containing 10% of FCS. […] The supernatant was discarded and cells of pellet were re-suspended in a culture medium consisting of Neurobasal (Batch 1625353, Invitrogen) supplemented with 2% of B27 (Batch 1618508, Invitrogen), 2 mM of L-glutamine (Batch 6620314, PanBiotech), 2% of PS solution, 1% of foetal calf serum (FCS) and 10 ng/mL of platelet-derived growth factor (PDGF-AA) (Batch H131205, PanBiotech).
The plates were maintained at 37° C. in a humidified incubator, in an atmosphere of air (95%)-CO2 (5%). Half of the medium was changed every 2 days with fresh medium in presence or absence of compound.
The cells were then permeabilized and non-specific sites were blocked with a solution of phosphate buffered saline (Batch 3010914, PanBiotech) containing 0.1% of saponin (Batch BCBJ8417V, Sigma) and 1% FCS for 15 min at room temperature.
On day 12, cells were incubated with Monoclonal Anti-A2B5 conjugated Alexa Fluor® 488 produced in mouse (Batch 2281669, Millipore, France) at dilution of 1/200 in PBS containing 1% FCS, 0.1% saponin, and with anti-MAP-2 antibody produced in chicken (Batch GR180541-3, AbCam; United Kingdom) at dilution of 1/1000 in PBS containing 1% FCS, 0.1% saponin for 2 h at room temperature.
On day 18, cells were incubated with Monoclonal Anti-MAG antibody produced in mouse (Batch 2301638, Millipore) at dilution of 1/400 in PBS containing 1% FCS, 0.1% saponin, and with anti-MAP-2 antibody produced in chicken at dilution of 1/1000 in PBS containing 1% FCS, 0.1% saponin for 2 h at room temperature.
The immunolabeled cultures were automatically examined with ImageXpress (Molecular Devices) equipped with a LED at ×20 magnification. For each condition, 30 pictures (representing ˜80% of the total surface of the well) per well were taken. All images were taken with the same conditions. Number of A2B5 positive cells and number of MAG positive cells were automatically analyzed by using Custom module editor (Molecular Devices). Data were expressed in percentage of control conditions (no plant extract=100%). All values were expressed as mean+/−SEM (s.e.mean) of the 6 wells. Graphs and statistical analyses are made on the different conditions (ANOVA followed by Dunnett's test when allowed, using GraphPad Prism software).

[7] = added 1 h before MPP+ (4 μM) and let for 48 h
[8] = added 1 h before glutamate (5 μM, 20 min)
[9] = after 12 or 18 days of incubation
[10] = added 1 h before glutamate (40 μM, 20 min) and let for 48 h

N[C@@H](CCC(=O)O)C(=O)O [Glutamate, glutamate]
motor neuron death ([1]; glutamate 5 μM for 20 min): > 30%
neuronal death and neurite network loss ([2]; glutamate 40 μM, 20 min): significant neuronal death and neurite network loss

C[n+]1ccc(-c2ccccc2)cc1 [MPP+, 1-methyl-4-phenyl pyridinium]
TH positive neuron cell death ([3]; MPP+ 4 μM, 48 h): > 35%

CC1=C(CO)C(=O)O[C@@H]([C@@H](C)[C@H]2CC[C@H]3[C@@H]4C[C@H]5O[C@]56[C@@H](O)C=CC(=O)[C@]6(C)[C@H]4CC[C@]23C)C1 [Withaferin A, (4β,5β,6β,22R)-4,27-Dihydroxy-5,6:22,26-diepoxyergosta-2,24-diene-1,26-dione]
IC50 [4]: 0.00037 mM
IC50 [5]: 0.00025 mM
toxicity for TH positive neurons ([3]; MPP+ 4 μM, 48 h, highest doses): toxic for TH positive neurons at the highest doses
neuroprotective effect on TH positive neurons [3, 7]: did not show any neuroprotective effect
neuroprotective effect on TH positive neurons ([3]; added 1 h before MPP+ (4 μM) and let for 48 h, listed as withaferin A): did not show any effect
toxicity for MN ([1]; MN injured by glutamate (5 μM, 20 min)): toxic for MN injured by glutamate
protective effect on motor neurons [1, 8]: did not show a protective effect; also recorded: did not show any neuroprotective effect
conclusion: effect on OPC and OL [6]: toxic for OPC and OL at all doses
number of OL [6, 9]: significant decrease of the number of OL
toxicity / OPC proliferation [6, 9]: large toxic and/or inhibition of the OPC proliferation
protection of neurons from death [2, 10]: did not protect neurons from death

CC1=C(CO)C(=O)O[C@@H]([C@@H](C)[C@H]2CCC3C4C[C@H]5O[C@]56[C@@H](O)C(SC[C@H](NC(=O)CC[C@@H](N)C(=O)O)C(=O)NCC(=O)O)CC(=O)[C@]6(C)C4CC[C@@]32C)C1 (some centres unmarked) [CR777B]
IC50 [4]: 0.00266 mM
toxicity on the cells compared with withaferin ([4]; whatever the cell line tested (HCT116 and MRC5)): less toxic than the compound withaferin
IC50 [5]: 0.0036 mM
concentrations with toxic effect on TH positive neurons [3, 7]: 10 µM
neuroprotective effect on TH positive neurons [3, 7]: significant protective effect (neuron survival and preservation of neurite network) at all doses (except at the highest dose)
MN protective effect at the 2 highest doses ([1]; 2 highest doses (1 and 10 μM), glutamate 5 μM, 20 min): inactive
concentration of maximal MN protective effect (bell shape curve) ([1]; added 1 h before glutamate (5 μM, 20 min), then 48 h): 100 nM
protective effect on motor neurons [1, 8]: significant protective effect at all doses (except at the 2 highest doses)
conclusion: effect on OPC and OL [6]: significantly increase the number of OPC and OL
OPC number (A2B5 positive cells) ([6]; after 12 days of incubation): significant increase of OPC
concentration of maximal effect on OPC number (bell shape curve) ([6]; after 12 days of incubation): 100 pM
total number of OPCs at the highest doses ([6]; after 12 days of incubation, highest doses): decrease of the total number of OPCs
myelination of neurons by OL (MAG expression) ([6]; after 18 days of treatment): significantly improved the myelination of neurons by OL
number of MAG positive cells (OL) ([6]; after 18 days of treatment): increase the number of MAG positive cells
concentration with toxicity on neurite network [2, 10]: 10 µM

Reference: patent US20210079035A1, “COMPOUNDS FOR TREATING NEURODEGENERATIVE DISORDERS” (ETHNODYNE, priority 2017, published 2021)
